In article PMC11464771, “Elucidation of Spartina dimethylsulfoniopropionate synthesis genes enables engineering of stress tolerant plants” (Nature Communications, 2024):

T1: MMT from Hordeum vulgare (Hordeum vulgare, UniProt Q9MBC2)
T1 construct: gene MMT1; recombinant, probably pMALc2x (MBP fusion), E. coli
T1 sequence (Q9MBC2 1-1088): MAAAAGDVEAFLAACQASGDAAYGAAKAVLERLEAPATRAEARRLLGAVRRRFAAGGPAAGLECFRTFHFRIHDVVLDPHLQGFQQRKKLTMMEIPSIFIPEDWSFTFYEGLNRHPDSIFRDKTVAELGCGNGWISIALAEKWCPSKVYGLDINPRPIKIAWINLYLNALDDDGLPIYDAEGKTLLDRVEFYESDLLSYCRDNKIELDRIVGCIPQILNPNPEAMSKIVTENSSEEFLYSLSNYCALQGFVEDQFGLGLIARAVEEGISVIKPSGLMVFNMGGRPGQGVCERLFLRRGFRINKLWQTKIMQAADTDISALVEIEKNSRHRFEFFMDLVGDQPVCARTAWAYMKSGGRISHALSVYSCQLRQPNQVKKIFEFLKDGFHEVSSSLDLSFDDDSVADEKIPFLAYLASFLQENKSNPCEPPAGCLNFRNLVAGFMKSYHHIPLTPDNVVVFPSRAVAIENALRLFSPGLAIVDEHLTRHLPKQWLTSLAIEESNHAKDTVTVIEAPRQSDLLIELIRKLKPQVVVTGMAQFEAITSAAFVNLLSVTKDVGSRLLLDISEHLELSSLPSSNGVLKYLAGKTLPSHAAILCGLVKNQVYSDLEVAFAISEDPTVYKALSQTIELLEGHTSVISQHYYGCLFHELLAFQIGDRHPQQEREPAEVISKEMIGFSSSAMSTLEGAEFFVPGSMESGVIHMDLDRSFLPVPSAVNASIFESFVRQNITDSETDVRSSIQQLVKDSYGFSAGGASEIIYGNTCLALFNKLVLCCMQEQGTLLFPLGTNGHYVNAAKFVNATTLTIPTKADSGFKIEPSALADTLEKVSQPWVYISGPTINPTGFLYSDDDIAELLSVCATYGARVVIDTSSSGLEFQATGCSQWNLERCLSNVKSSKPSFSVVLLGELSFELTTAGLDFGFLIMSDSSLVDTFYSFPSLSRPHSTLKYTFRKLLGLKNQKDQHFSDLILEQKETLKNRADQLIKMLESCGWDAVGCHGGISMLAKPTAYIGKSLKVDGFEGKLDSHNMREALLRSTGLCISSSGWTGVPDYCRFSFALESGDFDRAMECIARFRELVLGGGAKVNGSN

T2: MMT from Arabidopsis thaliana (Arabidopsis thaliana, UniProt Q9LTB2)
T2 construct: gene MMT1; recombinant, probably pMALc2x (MBP fusion), E. coli
T2 sequence (Q9LTB2 2-1071): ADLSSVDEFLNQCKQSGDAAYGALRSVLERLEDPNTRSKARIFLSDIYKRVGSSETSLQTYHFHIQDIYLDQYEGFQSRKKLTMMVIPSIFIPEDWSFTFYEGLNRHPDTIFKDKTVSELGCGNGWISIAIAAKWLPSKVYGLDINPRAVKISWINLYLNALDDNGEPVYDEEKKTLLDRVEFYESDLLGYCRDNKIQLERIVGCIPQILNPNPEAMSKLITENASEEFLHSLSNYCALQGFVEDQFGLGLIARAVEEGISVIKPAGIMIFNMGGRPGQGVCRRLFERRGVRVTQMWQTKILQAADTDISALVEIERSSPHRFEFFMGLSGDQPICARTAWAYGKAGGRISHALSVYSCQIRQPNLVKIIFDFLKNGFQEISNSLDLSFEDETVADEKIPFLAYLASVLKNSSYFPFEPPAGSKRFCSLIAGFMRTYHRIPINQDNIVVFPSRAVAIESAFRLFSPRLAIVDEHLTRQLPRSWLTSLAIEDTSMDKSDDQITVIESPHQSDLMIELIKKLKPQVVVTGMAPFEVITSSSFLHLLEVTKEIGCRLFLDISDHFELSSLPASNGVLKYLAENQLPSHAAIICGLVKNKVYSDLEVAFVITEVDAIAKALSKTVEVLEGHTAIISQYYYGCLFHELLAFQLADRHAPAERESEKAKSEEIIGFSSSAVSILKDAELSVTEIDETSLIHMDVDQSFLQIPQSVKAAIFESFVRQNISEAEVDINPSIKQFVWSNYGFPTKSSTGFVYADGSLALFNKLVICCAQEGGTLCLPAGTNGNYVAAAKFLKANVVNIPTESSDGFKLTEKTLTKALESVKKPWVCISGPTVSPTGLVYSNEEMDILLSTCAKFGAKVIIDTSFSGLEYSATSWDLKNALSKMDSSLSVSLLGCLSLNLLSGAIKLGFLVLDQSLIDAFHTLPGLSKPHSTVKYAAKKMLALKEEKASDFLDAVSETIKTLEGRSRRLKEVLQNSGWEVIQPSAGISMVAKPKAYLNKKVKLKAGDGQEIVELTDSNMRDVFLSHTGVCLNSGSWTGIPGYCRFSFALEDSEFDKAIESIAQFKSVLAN

B1: SaSDC (SaODC), S-methylmethionine decarboxylase (Sporobolus anglicus) (protein)
chain: MVGGSPMPMQAMLVVPGVKDRKVLSFKGDALKENDAIRSITSSTPAQRSAFHVLDLAKVVDLYRAWRRALPNVRPYYAVKCNSEPALLGALAALGAGFDCASHAEIDAVLALGVHPSSIVYANPCKPESHLEHAAAAGVNLTTYDSEEEVAKVRRCHPRCELLLRIKGPDDEEAQCDLGIKYGALADEVVPLLRAAQRAGVPVAGVAFNVGSPASRMDLYRDAIEAARAAFDAAAGLGMPPMRVLDIGGGFTAGATFEEAAAVINDALARHFGDLPYVEVISEPGRYFVKKAITLAARVIGKRTRGEVREYWIDDGVYGSFNCVIMDHYKPRPRPLVTPRPGEAKYTSTVFGPTCDSQDMVVTGYKLPEMSVGDWLVFDDMGAYTTAAGSKFNGFDTSDIKIYLAYST
notes: full-length ORF from transcriptome, synthetic gene, pMALc2x (MBP fusion), E. coli BL21(DE3), amylose resin

Assays:
MMT from Hordeum vulgare = target: T1, MMT from Hordeum vulgare; assay: in vitro MMT assay; assay type: biochemical; details: 1 mM L-methionine, 1 mM S-adenosylmethionine, Tris-HCl 20 mM pH 7.2, DTT 1 mM, 25 °C
[1] = target: T2, MMT from Arabidopsis thaliana; assay: in vitro MMT assay; assay type: biochemical; details: 1 mM L-methionine, 1 mM S-adenosylmethionine, Tris-HCl 20 mM pH 7.2, DTT 1 mM, 25 °C
[2] = substrate: C[S+](C)CC[C@H](N)C(=O)O; assay: NMR initial rates of DMSP-amine formation; assay type: biochemical, Sporobolus anglicus; details: Tris-HCl 20 mM pH 7.2, 0.1 mM pyridoxal 5'-phosphate, 25 °C

Molecule	in vitro MMT assay (MMT from Hordeum vulgare)	in vitro MMT assay [1]	Km [2]
CSCC[C@H](N)C(=O)O [L-methionine]	plant MMTs from Arabidopsis thaliana and Hordeum vulgare	SaMMT1 in vitro activity was comparable to previously characterised plant MMTs from Arabidopsis thaliana	–
B1	–	–	2130 ± 200 µM
